PubChem BioAssay AID248 (DTP/NCI, 2004)
Values joined by “and” are separate entries in the source; they are usually repeats but may differ in a detail not shown here. Equal entries are not always repeated. Toxic doses and inconclusive results are not listed. Cut-off read from the data, not from the text of the source: active = T/C of 150% or more; inactive = T/C below 125%.

Test system: L1210 leukemia ip in BDF1 mice, survival T/C
Test: NCI In Vivo Anticancer Drug Screen. Data for tumor model L1210 Leukemia (intraperitoneal) in B6D2F1 (BDF1) mice
Conditions: higher = longer survival
Outline: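 Read-out is survival time, reported as the treated-group measurement over the vehicle-control measurement.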

Measured: T/C

O=NN(CCCl)C(=O)NCCCl
inactive: endpoint: mean survival time, dose: 0.09 mg/kg/injection, schedule: Q01DX009 (ip), vehicle: saline 96 % of control | endpoint: mean survival time, dose: 0.09 mg/kg/injection, schedule: Q01DX009 (oral), vehicle: saline 100 % of control | endpoint: mean survival time, dose: 0.09 mg/kg/injection, schedule: Q## X024 (oral), vehicle: saline 102 % of control | endpoint: mean survival time, dose: 0.18 mg/kg/injection, schedule: Q01DX005 (ip), vehicle: saline 94 % of control | endpoint: mean survival time, dose: 0.18 mg/kg/injection, schedule: Q01DX009 (ip), vehicle: saline 101 % of control | endpoint: mean survival time, dose: 0.18 mg/kg/injection, schedule: Q01DX009 (oral), vehicle: saline 102 % of control | endpoint: mean survival time, dose: 0.18 mg/kg/injection, schedule: Q## X008 (ip), vehicle: saline 102 % of control | endpoint: mean survival time, dose: 0.18 mg/kg/injection, schedule: Q## X024 (oral), vehicle: saline 98 % of control | endpoint: mean survival time, dose: 0.32 mg/kg/injection, schedule: Q01DX001 (ip), vehicle: other 98 % of control | endpoint: mean survival time, dose: 0.36 mg/kg/injection, schedule: Q01DX Z (ip), vehicle: carboxymethylcellulose (CMC) 104 % of control | endpoint: mean survival time, dose: 0.37 mg/kg/injection, schedule: Q01DX001 (ip), vehicle: saline 104 % of control | endpoint: mean survival time, dose: 0.37 mg/kg/injection, schedule: Q01DX005 (ip), vehicle: saline 103 % of control | endpoint: mean survival time, dose: 0.37 mg/kg/injection, schedule: Q01DX005 (oral), vehicle: saline 93 % of control | endpoint: mean survival time, dose: 0.37 mg/kg/injection, schedule: Q01DX009 (ip), vehicle: saline 101 % of control | endpoint: mean survival time, dose: 0.37 mg/kg/injection, schedule: Q01DX009 (oral), vehicle: saline 97 % of control | endpoint: mean survival time, dose: 0.37 mg/kg/injection, schedule: Q01DX009 (sc), vehicle: saline 97 % of control | endpoint: mean survival time, dose: 0.37 mg/kg/injection, schedule: Q01DX015 (ip), vehicle: saline 115 % of control | endpoint: mean survival time, dose: 0.37 mg/kg/injection, schedule: Q## X003 (ip), vehicle: saline 107 % of control | endpoint: mean survival time, dose: 0.37 mg/kg/injection, schedule: Q## X008 (ip), vehicle: saline 109 % of control | endpoint: mean survival time, dose: 0.37 mg/kg/injection, schedule: Q## X024 (ip), vehicle: saline 110 % of control | endpoint: mean survival time, dose: 0.37 mg/kg/injection, schedule: Q## X024 (oral), vehicle: saline 100 % of control | endpoint: mean survival time, dose: 0.45 mg/kg/injection, schedule: Q01DX009 (ip), vehicle: saline + alcohol 99 % of control and 107 % of control | endpoint: mean survival time, dose: 0.63 mg/kg/injection, schedule: Q01DX001 (ip), vehicle: other 107 % of control | endpoint: mean survival time, dose: 0.73 mg/kg/injection, schedule: Q01DX Z (ip), vehicle: carboxymethylcellulose (CMC) 107 % of control | endpoint: mean survival time, dose: 0.75 mg/kg/injection, schedule: Q01DX001 (ip), vehicle: saline 105 % of control | endpoint: mean survival time, dose: 0.75 mg/kg/injection, schedule: Q01DX001 (sc), vehicle: saline 105 % of control | endpoint: mean survival time, dose: 0.75 mg/kg/injection, schedule: Q01DX005 (ip), vehicle: saline 108 % of control | endpoint: mean survival time, dose: 0.75 mg/kg/injection, schedule: Q01DX005 (oral), vehicle: saline 101 % of control | endpoint: mean survival time, dose: 0.75 mg/kg/injection, schedule: Q01DX009 (oral), vehicle: saline 116 % of control | endpoint: mean survival time, dose: 0.75 mg/kg/injection, schedule: Q01DX009 (sc), vehicle: saline 104 % of control | endpoint: mean survival time, dose: 0.75 mg/kg/injection, schedule: Q## X003 (ip), vehicle: saline 108 % of control | endpoint: mean survival time, dose: 0.75 mg/kg/injection, schedule: Q## X008 (ip), vehicle: saline 114 % of control | endpoint: mean survival time, dose: 0.75 mg/kg/injection, schedule: Q## X024 (oral), vehicle: saline 113 % of control | endpoint: mean survival time, dose: 1.0 mg/kg/injection, schedule: Q01DX Z (oral), vehicle: saline 117 % of control | endpoint: mean survival time, dose: 1.0 mg/kg/injection, schedule: Q04DX002 (ip), vehicle: saline + alcohol 105 % of control and 107 % of control | endpoint: mean survival time, dose: 1.0 mg/kg/injection, schedule: Q04DX004 (ip), vehicle: saline 106 % of control | endpoint: mean survival time, dose: 1.25 mg/kg/injection, schedule: Q01DX001 (ip), vehicle: other 101 % of control | endpoint: mean survival time, dose: 1.5 mg/kg/injection, schedule: Q01DX001 (ip), vehicle: saline 107 % of control | endpoint: mean survival time, dose: 1.5 mg/kg/injection, schedule: Q01DX001 (sc), vehicle: saline 107 % of control | endpoint: mean survival time, dose: 1.5 mg/kg/injection, schedule: Q01DX005 (oral), vehicle: saline 103 % of control | endpoint: mean survival time, dose: 1.5 mg/kg/injection, schedule: Q## X003 (ip), vehicle: saline 112 % of control | endpoint: mean survival time, dose: 1.75 mg/kg/injection, schedule: Q07DX Z (oral), vehicle: saline 105 % of control | endpoint: mean survival time, dose: 2.0 mg/kg/injection, schedule: Q01DX001 (ip), vehicle: Klucel (hydroxypropylcellulose) (HPC) 110 % of control | endpoint: mean survival time, dose: 2.0 mg/kg/injection, schedule: Q01DX001 (ip), vehicle: distilled water + alcohol 107 % of control | endpoint: mean survival time, dose: 2.0 mg/kg/injection, schedule: Q01DX001 (ip), vehicle: other 107 % of control and 111 % of control | endpoint: mean survival time, dose: 2.0 mg/kg/injection, schedule: Q01DX006 (iv), vehicle: saline 115 % of control | endpoint: mean survival time, dose: 2.0 mg/kg/injection, schedule: Q04DX002 (ip), vehicle: saline + alcohol 114 % of control | endpoint: mean survival time, dose: 2.0 mg/kg/injection, schedule: Q04DX004 (ip), vehicle: saline 118 % of control | endpoint: mean survival time, dose: 2.5 mg/kg/injection, schedule: Q01DX001 (ip), vehicle: other 114 % of control | endpoint: mean survival time, dose: 3.0 mg/kg/injection, schedule: Q01DX001 (ip), vehicle: saline 112 % of control | endpoint: mean survival time, dose: 3.0 mg/kg/injection, schedule: Q03DX Z (oral), vehicle: saline 117 % of control | endpoint: mean survival time, dose: 3.0 mg/kg/injection, schedule: Q## X003 (oral), vehicle: saline 112 % of control | endpoint: mean survival time, dose: 3.12 mg/kg/injection, schedule: Q01DX001 (ip), vehicle: saline 101 % of control and 106 % of control | endpoint: mean survival time, dose: 3.5 mg/kg/injection, schedule: Q07DX Z (oral), vehicle: saline 111 % of control | endpoint: mean survival time, dose: 5.0 mg/kg/injection, schedule: Q07DX003 (ip), vehicle: saline 104 % of control | endpoint: mean survival time, dose: 6.25 mg/kg/injection, schedule: Q01DX001 (ip), vehicle: saline 108 % of control and 110 % of control | endpoint: mean survival time, dose: 6.75 mg/kg/injection, schedule: Q03HX032 (ip), vehicle: saline + alcohol 103 % of control | endpoint: mean survival time, dose: 6.75 mg/kg/injection, schedule: Q## X032 (ip), vehicle: saline + alcohol 103 % of control | endpoint: mean survival time, dose: 12.0 mg/kg/injection, schedule: Q## X Z (ip), vehicle: saline 103 % of control | endpoint: mean survival time, dose: 12.5 mg/kg/injection, schedule: Q01DX001 (ip), vehicle: saline 118 % of control | endpoint: mean survival time, dose: 16.0 mg/kg/injection, schedule: Q01DX009 (ip), vehicle: carboxymethylcellulose (CMC) 102 % of control | endpoint: mean survival time, dose: 18.0 mg/kg/injection, schedule: Q## X006 (ip), vehicle: saline 116 % of control | endpoint: mean survival time, dose: 24.0 mg/kg/injection, schedule: Q01DX005 (ip), vehicle: saline 106 % of control | endpoint: mean survival time, dose: 24.0 mg/kg/injection, schedule: Q01DX005 (oral), vehicle: saline 119 % of control | endpoint: mean survival time, dose: 24.0 mg/kg/injection, schedule: Q01DX006 (ip), vehicle: saline 109 % of control | endpoint: mean survival time, dose: 24.0 mg/kg/injection, schedule: Q01DX009 (ip), vehicle: saline 117 % of control | endpoint: mean survival time, dose: 24.0 mg/kg/injection, schedule: Q01DX009 (oral), vehicle: saline 116 % of control | endpoint: mean survival time, dose: 24.0 mg/kg/injection, schedule: Q01DX009 (sc), vehicle: saline 117 % of control | endpoint: mean survival time, dose: 36.0 mg/kg/injection, schedule: Q01DX006 (ip), vehicle: saline 98 % of control | endpoint: mean survival time, dose: 40.0 mg/kg/injection, schedule: Q04DX004 (ip), vehicle: saline 94 % of control | endpoint: mean survival time, dose: 48.0 mg/kg/injection, schedule: Q01DX001 (ip), vehicle: Klucel (hydroxypropylcellulose) (HPC) 116 % of control | endpoint: mean survival time, dose: 48.0 mg/kg/injection, schedule: Q01DX006 (ip), vehicle: saline 94 % of control | endpoint: mean survival time, dose: 48.0 mg/kg/injection, schedule: Q## X024 (ip), vehicle: saline 119 % of control | endpoint: mean survival time, dose: 62.0 mg/kg/injection, schedule: Q04DX002 (ip), vehicle: saline + alcohol 107 % of control and 111 % of control | endpoint: mean survival time, dose: 64.0 mg/kg/injection, schedule: Q01DX Z (oral), vehicle: saline 94 % of control | endpoint: mean survival time, dose: 79.0 mg/kg/injection, schedule: Q01DX001 (oral), vehicle: saline 118 % of control | endpoint: mean survival time, dose: 88.0 mg/kg/injection, schedule: Q01DX001 (ip), vehicle: other 116 % of control | endpoint: mean survival time, dose: 96.0 mg/kg/injection, schedule: Q03DX Z (oral), vehicle: saline 108 % of control | endpoint: mean survival time, dose: 112.0 mg/kg/injection, schedule: Q07DX Z (oral), vehicle: saline 106 % of control | endpoint: mean survival time, dose: 128.0 mg/kg/injection, schedule: Q01DX001 (ip), vehicle: Klucel (hydroxypropylcellulose) (HPC) 106 % of control | endpoint: mean survival time, dose: 128.0 mg/kg/injection, schedule: Q01DX001 (ip), vehicle: other 98 % of control | endpoint: mean survival time, dose: 256.0 mg/kg/injection, schedule: Q01DX001 (ip), vehicle: Klucel (hydroxypropylcellulose) (HPC) 96 % of control | endpoint: mean survival time, dose: 256.0 mg/kg/injection, schedule: Q01DX001 (ip), vehicle: other 104 % of control | endpoint: median survival time, dose: 0.75 mg/kg/injection, schedule: Q01DX009 (ip), vehicle: saline 105 % of control | endpoint: median survival time, dose: 1.25 mg/kg/injection, schedule: Q01DX009 (ip), vehicle: saline 100 % of control and 112 % of control | endpoint: median survival time, dose: 24.0 mg/kg/injection, schedule: Q01DX009 (ip), vehicle: saline 95 % of control | endpoint: median survival time, dose: 30.0 mg/kg/injection, schedule: Q01DX005 (ip), vehicle: saline + alcohol 94 % of control and 102 % of control | endpoint: median survival time, dose: 30.0 mg/kg/injection, schedule: Q01DX009 (ip), vehicle: saline + alcohol 93 % of control
